Results: paper PMC10784468 (Nature Communications, 2024)
Each block holds one substance with its values, some of them ahead of it.

Tests used:
[1] = Critical aggregation concentration (pyrene probe, I338/I335); assay type: physicochemical; details: for I338/I335 (pyrene): pyrene 6 μM, emission 393 nm
Procedure: The CACs were determined using pyrene as a fluorescent probe. In brief, 50 μL of pyrene solution in acetone (480 μM) was added to a 5 mL centrifuge tube, followed by adding a series of peptide-porphyrin conjugate solutions with different concentrations, and the tube was kept overnight to evaporate the acetone completely, the concentration of pyrene being fixed at 6 μM at last. The excitation spectra of the solutions were recorded with the emission wavelength fixing at 393 nm, and the intensity ratio (I338/I335) was calculated as a function of the concentration. The CAC was determined based on the intersection point at low concentration on the plot.

GPX4 protein = test: Microscale Thermophoresis (MST) ligand binding; details: for Fnorm (‰), MST original data: labelled GPX4
Procedure: Initially, GPX4 was labeled using Protein Labeling Kit RED-NHS according to the manufacturer’s instructions to investigate the binding affinity of Gi-F-CAA, Gi-F and NGi-F-CAA with GPX4 protein. Afterward, the labelled GPX4 protein was incubated with series of Gi-F-CAA, Gi-F and NGi-F-CAA concentration gradients. Finally, the prepared samples were loaded into silica capillaries and measured with Monolish NT.115. Apparent Kd represented the affinity of assemblies rather than a single molecule. Bovine serum albumin (BSA) was used as control for calculating the apparent binding affinity between Gi-F (nanoparticle) to GPX4 protein. Briefly, as the diameter of nanoparticle is proportional to the molecular weight, according to the reported bovine serum albumin (BSA) protein size and molecular weight (7.2 nm, 66.43 KDa), the molecular weight of Gi-F nanoparticle with an average 78 nm size can be calculated to be […]. The monomer amount Gi-F nanoparticle was calculated as […].

EJ cells [2] = test: Intracellular GSH content detection; assay type: cell-based
Procedure: (§1) Initially, EJ cells (5 × 10^5) were cultured in 6-well plate with a CO2 incubator overnight at 37 °C. […] Next, EJ cells were collected and washed with PBS for 3 times. Afterwards, the cell lysates were collected by centrifugation at 8000 g for 10 min at 4 °C after lysed by freeze-thaw treatment. Finally, the GSH contents were measured with a GSH Assay Kit based on the manufacturer’s instructions.

EJ cells [3] = test: Intracellular Fe2+ ions detection; assay type: cell-based
Procedure: Initially, EJ cells (5 × 10^5) were cultured in confocal dish with a CO2 incubator overnight at 37 °C. […] Afterwards, EJ cells were washed with PBS for 3 times and replaced with culture mediums.

EJ cells [4] = test: Intracellular LPO content (MDA kit); assay type: cell-based
Procedure: as §1, with “the LPO” for “the GSH”, “measured by thiobarbituric acid (TBA) reaction” for “measured”, “a Malondialdehyde (MDA)” for “a GSH”

GPX4 = biological target: T1, GPX4 (Homo sapiens, UniProt P36969); test: Intracellular GPX4 activity detection; assay type: cell-based; parameters: endogenous in cells; host or cells: EJ bladder cancer cells
T1 sequence (P36969 1-197): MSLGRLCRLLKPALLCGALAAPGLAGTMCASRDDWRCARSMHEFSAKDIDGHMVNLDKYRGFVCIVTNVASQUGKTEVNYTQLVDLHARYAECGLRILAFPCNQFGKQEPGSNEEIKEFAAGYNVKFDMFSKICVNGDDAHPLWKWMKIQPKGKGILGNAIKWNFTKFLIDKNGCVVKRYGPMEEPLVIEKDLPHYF
Procedure: as §1, with “5000 rpm” for “8000 g”, “ultrasonic lysis in an ice bath.” for “lysed by freeze-thaw treatment.”, “GPX4 activity” for “GSH contents”, “GPX” for “GSH”

Fnorm (‰), MST original data (GPX4 protein; nanoparticle ligand concentration 3.07265e-11 (μM)): 857.598 ‰ | Fnorm (‰), MST original data (GPX4 protein; nanoparticle ligand concentration 6.14531e-11 (μM)): 848.131 ‰ | Fnorm (‰), MST original data (GPX4 protein; nanoparticle ligand concentration 1.22906e-10 (μM)): 859.494 ‰ | Fnorm (‰), MST original data (GPX4 protein; nanoparticle ligand concentration 2.45812e-10 (μM)): 850.692 ‰ | Fnorm (‰), MST original data (GPX4 protein; nanoparticle ligand concentration 4.91623e-10 (μM)): 861.283 ‰ | Fnorm (‰), MST original data (GPX4 protein; nanoparticle ligand concentration 9.8325e-10 (μM)): 853.275 ‰ | Fnorm (‰), MST original data (GPX4 protein; nanoparticle ligand concentration 1.9665e-9 (μM)): 865.165 ‰ | Fnorm (‰), MST original data (GPX4 protein; nanoparticle ligand concentration 3.933e-9 (μM)): 860.627 ‰ | Fnorm (‰), MST original data (GPX4 protein; nanoparticle ligand concentration 7.86601e-9 (μM)): 880.817 ‰ | Fnorm (‰), MST original data (GPX4 protein; nanoparticle ligand concentration 1.5732e-8 (μM)): 885.875 ‰ | Fnorm (‰), MST original data (GPX4 protein; nanoparticle ligand concentration 3.1464e-8 (μM)): 915.502 ‰ | Fnorm (‰), MST original data (GPX4 protein; nanoparticle ligand concentration 6.29279e-8 (μM)): 920.264 ‰ | Fnorm (‰), MST original data (GPX4 protein; nanoparticle ligand concentration 1.25856e-7 (μM)): 943.293 ‰ | Fnorm (‰), MST original data (GPX4 protein; nanoparticle ligand concentration 2.51712e-7 (μM)): 935.723 ‰ | Fnorm (‰), MST original data (GPX4 protein; nanoparticle ligand concentration 5.03423e-7 (μM)): 956.979 ‰ | Fnorm (‰), MST original data (GPX4 protein; nanoparticle ligand concentration 1.00685e-6 (μM)): 946.244 ‰ | increase of binding affinity to GPX4 versus Gi-F-CAA (GPX4 protein; ratio of MST Kd values): ~ 55 times
Substance: FeTCPP-LKLKLKGACNWLPLYPCPV (disulfide) [Gi-F]
I338/I335 (pyrene) ([1]; conjugate 0.97656 μM): 0.9792 | I338/I335 (pyrene) ([1]; conjugate 1.95313 μM): 0.979 | I338/I335 (pyrene) ([1]; conjugate 3.90625 μM): 0.9785 | I338/I335 (pyrene) ([1]; conjugate 7.8125 μM): 0.9903 | I338/I335 (pyrene) ([1]; conjugate 15.625 μM): 1.011 | I338/I335 (pyrene) ([1]; conjugate 31.25 μM): 1.031 | I338/I335 (pyrene) ([1]; conjugate 62.5 μM): 1.099 | I338/I335 (pyrene) ([1]; conjugate 125 μM): 1.141 | I338/I335 (pyrene) ([1]; conjugate 250 μM): 1.203 | I338/I335 (pyrene) ([1]; conjugate 500 μM): 1.248 | I338/I335 (pyrene) ([1]; conjugate 1000 μM): 1.254 | critical aggregation concentration (CAC) ([1]; pyrene probe, I338/I335, PBS 0.01 M, pH 7.4): 13.8 µM

Substance: FeTCPP-LKLKLK(SA)GACNWLPLYPCPV (disulfide) [Gi-F-SA, control conjugate decorated with non-sensitive succinic anhydride (SA) moieties]
Relative GSH levels (EJ cells [2]; pH=7.4, replicate #1): 0.589 | Relative GSH levels (EJ cells [2]; pH=7.4, replicate #2): 0.628 | Relative GSH levels (EJ cells [2]; pH=7.4, replicate #3): 0.53 | intracellular Fe^2+ (FerroOrange fluorescence), pH 7.4 (EJ cells [3]; EJ cells, pH 7.4, 8 h): no remarkable fluorescence | Concentrations of Fe2+ ions (EJ cells [3]; pH=7.4, replicate #1): 13.222 ng/104cells | Concentrations of Fe2+ ions (EJ cells [3]; pH=7.4, replicate #2): 11.221 ng/104cells | Concentrations of Fe2+ ions (EJ cells [3]; pH=7.4, replicate #3): 12.7 ng/104cells | Relative MDA levels (EJ cells [4]; pH=7.4, replicate #1): 2.76 | Relative MDA levels (EJ cells [4]; pH=7.4, replicate #2): 2.24 | Relative MDA levels (EJ cells [4]; pH=7.4, replicate #3): 2 | Relative activity of GPX4 (GPX4; EJ cells, 8 h, pH 7.4, PBS group normalized as 1, #1): 0.62 | Relative activity of GPX4 (GPX4; EJ cells, 8 h, pH 7.4, PBS group normalized as 1, #2): 0.59 | Relative activity of GPX4 (GPX4; EJ cells, 8 h, pH 7.4, PBS group normalized as 1, #3): 0.73 | Relative activity of GPX4 (GPX4; pH=7.4, replicate #1): 0.61 | Relative activity of GPX4 (GPX4; pH=7.4, replicate #2): 0.62 | Relative activity of GPX4 (GPX4; pH=7.4, replicate #3): 0.66
